Test results reported in ChEMBL document CHEMBL1201862, “PubChem BioAssay data set” (2004).
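Five concentrations, 48 hours, 96-well plates. GI50: concentration for 50% inhibition of growth.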 The source made the active and inactive calls. Rule as the data show it: active = GI50 up to about 1.1 µM and inactive = higher. Peptide text beside a SMILES is read from it. * marks the point of attachment. Boc = CC(C)(C)OC(=O)*; OBn = c1ccc(CO*)cc1

Tests used:
Experiment in all cases: NCI tumour cell line growth inhibition, 48 h
[1] = system: T47D
[2] = system: MDA-MB-435
[3] = system: LOX IMVI
[4] = system: OVCAR-5
[5] = system: MDA-MB-231
[6] = system: U-251
[7] = system: K562
[8] = system: HT-29
[9] = system: SK-MEL-5
[10] = system: 786-0
[11] = system: SK-OV-3
[12] = system: HCT-116
[13] = system: CCRF-CEM
[14] = system: MCF7
[15] = system: KM12
[16] = system: NCI-H226
[17] = system: SF-268
[18] = system: MDA-N
[19] = system: SF-539
[20] = system: Malme-3M

Measured: GI50

CC1(C)OC(=S)N(c2ccccc2)C12C=Cc1ccccc1O2 (stereo not given)
inactive: [1] 20.5 µM | [2] 36.4 µM | [3] > 100 µM | [4] > 100 µM | [5] > 100 µM | [6] > 100 µM | [7] 29.1 µM | [8] 56.6 µM | [9] 56.5 µM | [10] > 100 µM | [11] 16.6 µM | [12] 36.6 µM | [13] 27.8 µM | [14] 61.1 µM | [15] 35 µM | [16] 85.3 µM | [17] > 100 µM | [18] 39.5 µM

CC(=O)OC[C@@]12C[C@H]3C(=O)C(C)(C)C[C@H]3[C@]1(C)[C@@H](OC(C)=O)[C@]1(O)[C@H]([C@@H](OC(=O)c3ccccc3)[C@@H](C)[C@H]1OC(C)=O)[C@H]2OC(C)=O
inactive: [1] > 20 µM | [2] > 20 µM | [3] > 20 µM | [4] > 20 µM | [5] > 20 µM | [6] > 20 µM | [7] 6.87 µM | [9] > 20 µM | [10] > 20 µM | [11] > 20 µM | [12] > 20 µM | [13] 6.21 µM | [19] 16.5 µM | [14] > 20 µM | [15] > 20 µM | [16] > 20 µM | [17] > 20 µM | [18] 12.9 µM

COc1ccc2c(c1)nc1n2C(c2c(Cl)cccc2Cl)SC1 (stereo not given)
inactive: [1] 16.9 µM | [2] 2.59 µM | [3] 25.8 µM | [4] > 67.8 µM | [5] 29.3 µM | [6] 21.4 µM | [7] > 100 µM | [8] 15.2 µM | [9] 5.02 µM | [10] 21.3 µM | [11] > 51.9 µM | [12] 7.85 µM | [19] 9.1 µM | [14] 5.68 µM | [15] 12.4 µM | [16] > 21.8 µM | [20] 3.01 µM | [17] 20 µM | [18] 2.26 µM

CC(C)CC(NC(=O)OC(C)(C)C)C(=O)NC(CC(=O)OCc1ccccc1)C(N)=O (stereo not drawn) (Boc-Leu-Asp(OBn)-NH2; configuration not given here)
inactive: [1] > 100 µM | [2] > 100 µM | [3] > 100 µM | [4] > 100 µM | [5] > 100 µM | [6] > 100 µM | [7] > 100 µM | [8] > 100 µM | [9] > 100 µM | [10] > 100 µM | [11] > 100 µM | [12] > 100 µM | [19] > 100 µM | [14] > 100 µM | [15] > 100 µM | [16] > 100 µM | [20] > 100 µM | [17] > 100 µM | [18] > 100 µM

N#CC1=C(N)OC2=C(CCCc3ccc([N+](=O)[O-])cc32)C1c1ccccc1 (stereo not given)
inactive: [1] 6.24 µM | [2] 1.42 µM | [3] 5.35 µM | [4] 11 µM | [5] 17.7 µM | [6] 4.71 µM | [7] 2.57 µM | [8] 3.44 µM | [9] 3.38 µM | [10] 9.98 µM | [11] 8.07 µM | [12] 4.23 µM | [19] 3.17 µM | [14] 3.45 µM | [15] 3.15 µM | [16] 8.3 µM | [20] 7.45 µM | [17] 5.41 µM | [18] 2.09 µM

COc1cc(C2S/C(=C/c3ccccc3)C(=O)N2Cc2ccccc2)cc(OC)c1OC (stereo not given)
inactive: [1] 5.07 µM | [2] 25.5 µM | [3] 32.1 µM | [4] > 100 µM | [5] > 100 µM | [6] 32.7 µM | [7] 21.8 µM | [8] 53.5 µM | [9] 28.2 µM | [10] 41.1 µM | [11] 42.1 µM | [12] 17.5 µM | [13] 23.1 µM | [14] 61.1 µM | [15] 36.1 µM | [16] > 100 µM | [17] 33.1 µM | [18] 19.3 µM

C/C=C\C(C)=C/C(C)C(=O)CC(O)CC1CC(=O)NC(=O)C1 (stereo not given)
inactive: [1] 28.1 µM | [2] 28.4 µM | [3] 20.6 µM | [4] 4.86 µM | [5] > 42.3 µM | [6] 31.2 µM | [7] 20.5 µM | [8] 24 µM | [9] 17.9 µM | [10] 13.5 µM | [11] 5.77 µM | [12] 16.4 µM | [13] 10.1 µM | [19] 14 µM | [14] 21 µM | [15] 14.6 µM | [16] 35.5 µM | [17] 10.5 µM | [18] 19.5 µM

CC1(C)O[C@H]([C@H](O)c2nnc3ccc(Cl)nn23)[C@@H]([C@H]2COC(C)(C)O2)O1
inactive: [1] > 100 µM | [2] > 100 µM | [3] > 100 µM | [4] > 100 µM | [5] > 100 µM | [6] > 100 µM | [8] > 100 µM | [9] > 100 µM | [10] > 100 µM | [11] > 100 µM | [12] > 100 µM | [13] > 100 µM | [19] > 100 µM | [14] > 100 µM | [15] > 100 µM | [20] > 100 µM | [17] > 100 µM | [18] > 100 µM

[N-]=[N+]=NC1=CC(=O)c2cccc3cccc1c23
inactive: [1] 22.3 µM | [2] 40 µM | [3] 17.3 µM | [4] 49.3 µM | [5] 73.8 µM | [6] 20.1 µM | [7] 26.2 µM | [8] 34.6 µM | [9] 12 µM | [10] 31.9 µM | [11] 15.3 µM | [12] 23.5 µM | [13] 10.6 µM | [19] 31 µM | [14] 34.2 µM | [15] 85.9 µM | [20] 31.4 µM | [17] 29.9 µM | [18] 46.2 µM

Cc1sc2c(c1C)/C(=N\O)c1cccn1-2
inactive: [1] 25.1 µM | [2] 54 µM | [3] 55.7 µM | [4] > 100 µM | [5] 52.8 µM | [6] 26.7 µM | [8] 30.2 µM | [9] 46.1 µM | [10] 20.1 µM | [11] 39.7 µM | [12] 37.6 µM | [13] 3.6 µM | [14] 39.1 µM | [15] 31.6 µM | [16] 29.7 µM | [20] 45.1 µM | [17] 34 µM | [18] 40.6 µM
